Key:
[1] = tested on: Human Achilles tendon-derived tenocytes; assay: cell metabolic activity (MTT test), basal conditions; format: cell-based; conditions: 6.25–50 µM; for cell metabolic activity (MTT): vs untreated control
Method: (§3) Human Achilles tendon-derived tenocytes (#TEN-F) were purchased by ZenBio Inc. (Durham, NC, USA) and maintained in complete alpha-MEM (EuroClone, Milan, Italy) supplemented with 10% of heat-inactivated FBS (Gibco, Thermo Fisher Scientific, Waltham, MA, USA) and 1% penicillin/streptomycin (EuroClone, Milan, Italy) at 37 °C and 5% CO2 and used from passage 3 up to passage 6.
(§4) Cells were seeded in 96-well plates (0.5 × 10^4/well) or 6-well plates (0.5 × 10^5/well) (ThermoFisher Scientific, Waltham, MA, USA) and left to adhere overnight at 37 °C and 5% CO2. For cell metabolic activity experiments (MTT test), tenocytes were treated with increasing concentrations of compounds (range 0–50 µM) for 24 and 48 h. Compounds were dissolved in DMSO to obtain a 200 mM stock solution, and they were afterwards diluted in complete alpha-MEM (DMSO final concentration = 0.1%) for further analyses. In a second set of MTT experiments, tenocytes were pre-incubated with 100 µM H2O2 for 3 h. After that, the pre-incubation medium was discarded and replaced with a fresh one containing the proper compound at increasing concentrations for 24 and 48 h. At the established time points, samples were processed for further analyses.
(§5) Tenocytes were seeded in 96 well tissue culture-treated plates (Falcon®, Corning Incorporated, Brooklyn, NY, USA) at 0.5 × 10^4 cells/well. Untreated cells (0 µM) were set as control (100% of cell metabolic activity). At the established time points, the exposure media were replaced by fresh medium containing 3-(4,5-dimethylthiazol-2-yl)-2,5-diphenyltetrazolium bromide (MTT) 0.5 mg/mL (Merck, Darmstadt, Germany) and processed as elsewhere reported [18]. The optical density in each well was measured using a spectrophotometer (Thermo Fisher Scientific, Waltham, MA, USA) at a wavelength of 540 nm. Each experiment was performed three times in triplicates per experimental condition (n = 9).

[2] = tested on: H2O2-stimulated human Achilles tendon-derived tenocytes; assay: collagen type I secretion (ELISA); format: cell-based; conditions: 48 h, after H2O2 100 µM for 3 h, compared to untreated cells, normalised on MTT
Method: (§1) Compound A and acetazolamide were administered as reference compounds.
Amounts of collagen type I secreted in supernatants harvested from 96 well plates were detected by a human collagen type 1 ELISA kit (Cosmo Bio Co., Ltd., Tokyo, Japan; cat. no. ACE-EC1-E105-EX). Samples were pipetted into suitably coated wells as described elsewhere. Each ELISA test was performed three times in duplicates per experimental condition (n = 6). The concentration of collagen type I (µg/mL) was calculated using a standard curve generated with a specific standard provided by the manufacturer by means of the Prism 5.0 software (GraphPad, San Diego, CA, USA).

[3] = tested on: H2O2-stimulated human Achilles tendon-derived tenocytes; assay: cell metabolic activity (MTT test), pre-incubation with H2O2; format: cell-based; conditions: 6.25–50 µM, after H2O2 100 µM for 3 h
Method: as §3, §4, §5

[4] = tested on: H2O2-stimulated human Achilles tendon-derived tenocytes; assay: cell cycle analysis by flow cytometry (propidium iodide); format: cell-based; conditions: 48 h, after H2O2 100 µM for 3 h
Method: as §1
The progression of the cell cycle was assessed by flow cytometry, as already reported. Briefly, after the pre-incubation with H2O2 (100 µM for 3 h) and the exposure time (48 h), approximately 0.5 × 10^5 cells/experimental condition were fixed with cold ethanol 70% v/v and afterwards stained with 1 mg/mL propidium iodide (PI) (final concentration 10 µg/mL) and 10 mg/mL RNAse (final concentration 100 µg/mL) and kept overnight at 4 °C in the dark. Each experiment was performed two times in triplicates per experimental condition (n = 6). Cell cycle profiles (1 × 10^4 events/sample) were finally analysed with a CytoFLEX flow cytometer (Beckman Coulter, Indianapolis, IN, USA), and data were quantified using the ModFit LT™ 4.0 software (De Novo Software, Glendale, CA, USA).

[5] = tested on: reduced myoglobin (deoxy-Mb); assay: myoglobin carbonylation assay (CO release); parameters: species or system horse; conditions: for MbCO formed: after 210 min of incubation, 1:1 CORM–Mb ratio (about 20 μM CORM); for CO-release profile (MbCO formed over time): 1:1 and 1:6 CORM:Mb, up to 300 min, comparison within series; for CO units released: after 300 min of incubation with Mb, 37 °C
Method: To determine the CO-releasing properties of the designed compounds, the myoglobin carbonylation assay was employed, with some deviations from the standard protocol, as previously reported. The analysed compounds were incubated with reduced myoglobin (deoxy-Mb), and spectra were recorded every 30 min up to 300 min. The release of CO was assessed by evaluating the formation of carbonylated myoglobin (Mb-CO) over time (Figure 3). […] The releasing properties of the compounds were also expressed as CO units released after 300 min of incubation with Mb, as reported in Figure S1 (Supplementary Information File).
All the employed reagents were of analytical grade and acquired from Merck (Milan, Italy). Gaseous CO was obtained from Rivoira (Milan, Italy). A Shimadzu UV1900 UV-Vis Spectrophotometer from 275 to 700 nm at the scanning rate of 200 nm/min was used to record UV-Vis absorption spectra in a disposable plastic cuvette (path length 0.44 cm). The second derivative spectra were generated with the Origin Lab software, and the Savitzky–Golay method was applied using 25 data points for the differentiation process. Neither an increase nor a decrease in the number of points caused changes in the wavelength or in the bandwidth. Lyophilised horse heart Mb was dissolved in phosphate-buffered saline flushed with N2 (PBS, 0.01 M, pH 7.4 to a 20–22 μM final concentration). Two millilitres of this freshly prepared stock solution were placed in a cuvette to record the UV-Vis absorption spectrum of met-Mb. Next, the solutions were divided into two halves: 10 μL of sodium dithionite (30 mg/mL) was added to the first half (reference), and the UV–Vis spectrum of deoxy-Mb was registered. After that, the solution was flushed with CO gas, and the Mb-CO spectrum was acquired. Sodium dithionite was added to the second half (sample), and a spectrum was recorded. Afterwards, a CORM DMSO solution was added to a final CORM concentration of 1.67 μM, 3.33 μM or 20 μM and gently mixed. The solution was covered with 300 μL of light mineral oil to avoid CO escaping and oxygenation of Mb, and the absorption spectrum was recorded at t = 0. Spectra were acquired every 30 min for 300 min, keeping the sample at 37 °C. When necessary, a freshly prepared sodium dithionite solution was added. After 300 min, the total Mb concentration at the end of the assay was determined by flushing the sample with CO gas. Mb-CO concentration at each time point was determined, as previously reported. Each experiment was replicated three times, and the data were expressed as mean ± SEM.

hCA IX = hCA IX (Homo sapiens, UniProt Q16790); assay: stopped-flow CO2 hydrase assay, hCA IX; format: biochemical; conditions: mean from three assays, errors ±5–10%
Method: (§2) The CO2 concentrations ranged from 1.7 to 17 mM for the determination of the kinetic parameters and inhibition constants. […] The uncatalysed rates were determined in the same manner and subtracted from the total observed rates. […] The inhibition constants were obtained by non-linear least-squares methods using PRISM 3 and the Cheng–Prusoff equation and represent the mean from at least three different determinations.

hCA XII = hCA XII (Homo sapiens, UniProt O43570); assay: stopped-flow CO2 hydrase assay, hCA XII; format: biochemical; conditions: mean from three assays, errors ±5–10%
hCA XII, sequence (O43570 25-354): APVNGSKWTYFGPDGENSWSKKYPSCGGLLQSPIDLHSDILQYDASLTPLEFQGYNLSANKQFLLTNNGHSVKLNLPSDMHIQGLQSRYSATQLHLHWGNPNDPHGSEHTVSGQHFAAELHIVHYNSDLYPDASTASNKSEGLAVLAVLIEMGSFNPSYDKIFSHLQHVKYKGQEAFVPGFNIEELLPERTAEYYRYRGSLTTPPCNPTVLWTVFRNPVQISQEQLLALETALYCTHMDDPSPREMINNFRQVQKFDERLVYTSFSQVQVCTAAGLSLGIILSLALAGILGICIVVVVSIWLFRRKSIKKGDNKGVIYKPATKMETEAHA
Method: as §2

hCA I = hCA I (Homo sapiens, UniProt P00915); conditions: stopped-flow CO2 hydrase assay; cells marked a; cited from earlier work
hCA I, sequence (P00915 whole entry): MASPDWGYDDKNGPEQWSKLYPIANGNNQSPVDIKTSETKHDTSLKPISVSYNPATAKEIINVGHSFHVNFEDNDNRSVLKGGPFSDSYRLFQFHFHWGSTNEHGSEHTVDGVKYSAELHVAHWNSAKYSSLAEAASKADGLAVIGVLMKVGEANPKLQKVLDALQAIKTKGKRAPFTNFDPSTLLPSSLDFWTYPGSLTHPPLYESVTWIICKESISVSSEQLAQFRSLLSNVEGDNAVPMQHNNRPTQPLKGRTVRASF

hCA II = hCA II (Homo sapiens, UniProt P00918); assay: stopped-flow CO2 hydrase assay, hCA II; format: biochemical; conditions: mean from three assays, errors ±5–10%
Method: as §2

Molecule	cell metabolic activity (MTT) ([1]; 48 h exposure)	collagen type I secretion [2]	cell metabolic activity (MTT) ([3]; 24 h exposure)	cell metabolic activity (MTT) ([3]; 48 h exposure)	MbCO formed [5] [µM]	also measured
CC(=O)Nc1nnc(S(N)(=O)=O)s1 [AAZ, acetazolamide, reference compound]	still ineffective	do not enhance the secretion	–	–	–	cytotoxicity (MTT) ([3]; 24 h exposure): cytotoxicity at the highest dose; cytotoxicity (MTT) ([3]; 48 h exposure): cytotoxic at the highest concentration; cell cycle progression (H2O2-induced G2 increase) [4]: ineffective
C#CCOc1ccccc1.[C-]#[O+].[C-]#[O+].[C-]#[O+].[C-]#[O+].[C-]#[O+].[C-]#[O+].[Co].[Co] [CO-B, (Prop-2-yn-1-yloxy)benzene hexacarbonyldicobalt, reference compound]	extremely active in terms of cell metabolic activity increase	–	capable of increasing cell metabolic activity	can increase cell metabolic activity over the concentration range	4	–
CC#CCNc1ccc(S(N)(=O)=O)cc1.[C-]#[O+].[C-]#[O+].[C-]#[O+].[C-]#[O+].[C-]#[O+].[C-]#[O+].[Co].[Co] [2a, 4-(but-2-yn-1-ylamino)benzenesulfonamide hexacarbonyldicobalt]	increases tenocyte metabolic activity to a lesser extent than 1a	–	best test compounds able to increase cell metabolic activity	–	–	cell metabolic activity (MTT) ([1]; 24 h exposure): significantly increase cell metabolic activity; cytotoxicity (MTT) ([1]; 48 h exposure): biocompatible; CO-release profile (MbCO formed over time) [5]: superimposable profile of MbCO formed over time
CCC#CCN(CC#CCC)c1ccc(S(N)(=O)=O)cc1.[C-]#[O+].[C-]#[O+].[C-]#[O+].[C-]#[O+].[C-]#[O+].[C-]#[O+].[Co].[Co] [3c, 4-(Di(pent-2-yn-1-yl)amino)benzenesulfonamide hexacarbonyldicobalt]	–	–	–	–	–	cytotoxicity (MTT) ([1]; 48 h exposure): cytotoxic, already at the lowest concentration
CCC#CCNc1ccc(S(N)(=O)=O)cc1.[C-]#[O+].[C-]#[O+].[C-]#[O+].[C-]#[O+].[C-]#[O+].[C-]#[O+].[Co].[Co] [3a, 4-(pent-2-yn-1-ylamino)benzenesulfonamide hexacarbonyldicobalt]	–	–	–	–	–	cytotoxicity (MTT) ([1]; 24 h exposure): reveal cytotoxicity; cytotoxicity (MTT) ([3]; 24 h exposure): cytotoxic at the highest concentrations used; CO-release profile (MbCO formed over time) [5]: superimposable profile of MbCO formed over time
4-(Diprop-2′-ynylamino)benzenesulfonamide hexacarbonyldicobalt [1c]	constantly effective on cell metabolic activity over the concentrations	weakly but significantly increases collagen type 1 secretion	–	–	3.66	Ki (hCA IX): 6.2 nM; CO units released ([5]; 1:12 CORM:Mb ratio (1.67 μM CORM)): 2.3 CO units; cell cycle progression (H2O2-induced G2 increase) [4]: weakly but significantly counteract the H2O2-induced G2 increase; Ki (hCA XII): 7.5 nM
C#CCOc1ccc(S(N)(=O)=O)cc1 [B, 4-(prop-2′-ynyloxy)benzenesulfonamide, reference compound]	still ineffective	–	–	–	–	–
CCC#CCOc1ccc(S(N)(=O)=O)cc1.[C-]#[O+].[C-]#[O+].[C-]#[O+].[C-]#[O+].[C-]#[O+].[C-]#[O+].[Co].[Co] [3b, 4-(Pent-2-yn-1-yloxy)benzenesulfonamide hexacarbonyldicobalt]	–	–	–	–	–	cytotoxicity (MTT) ([1]; 48 h exposure): cytotoxic, already at the lowest concentration
C#CCNc1ccc(S(N)(=O)=O)cc1 [A, 4-(prop-2-ynylamino)benzenesulfonamide, reference compound]	still ineffective	do not enhance the secretion	–	–	–	cell cycle progression (H2O2-induced G2 increase) [4]: ineffective
C#CCNc1ccccc1.[C-]#[O+].[C-]#[O+].[C-]#[O+].[C-]#[O+].[C-]#[O+].[C-]#[O+].[Co].[Co] [CO-A, N-(prop-2-yn-1-yl)aniline hexacarbonyldicobalt, reference compound]	extremely active in terms of cell metabolic activity increase	–	capable of increasing cell metabolic activity	increase cell metabolic activity only at 50 µM	8.1	–
CC#CCN(CC#CC)c1ccc(S(N)(=O)=O)cc1.[C-]#[O+].[C-]#[O+].[C-]#[O+].[C-]#[O+].[C-]#[O+].[C-]#[O+].[Co].[Co] [2c, 4-(Di(but-2-yn-1-yl)amino)benzenesulfonamide hexacarbonyldicobalt]	constantly effective on cell metabolic activity over the concentrations	–	best test compounds able to increase cell metabolic activity	the best compound in terms of cell metabolic activity increase	–	cell metabolic activity (MTT) ([1]; 24 h exposure): significantly increase cell metabolic activity
C#CCNc1ccc(S(N)(=O)=O)cc1.[C-]#[O+].[C-]#[O+].[C-]#[O+].[C-]#[O+].[C-]#[O+].[C-]#[O+].[Co].[Co] [1a, 4-(prop-2-ynylamino)benzenesulfonamide hexacarbonyldicobalt]	well increases cell metabolic activity at the lower concentrations	dramatically increases its secretion almost three times	–	–	9.05	cell metabolic activity (MTT) ([1]; 24 h exposure): significantly increase cell metabolic activity; KI hCA IX (hCA IX): ineffective; Ki (hCA I): 901 nM; cytotoxicity (MTT) ([3]; 24 h exposure): cytotoxic at the highest concentrations used; cytotoxicity (MTT) ([3]; 48 h exposure): reveal cytotoxicity at the highest concentrations; CO-release profile (MbCO formed over time) [5]: the fastest and most efficient releaser among the series; CO units released ([5]; 1:6 CORM:Mb ratio (3.33 μM CORM)): 1.6 CO units; Ki (hCA II): 215 nM
C#CCN(CC#C)c1ccccc1.[C-]#[O+].[C-]#[O+].[C-]#[O+].[C-]#[O+].[C-]#[O+].[C-]#[O+].[Co].[Co] [CO-C, N,N-di(prop-2-yn-1-yl)aniline hexacarbonyldicobalt, reference compound]	extremely active in terms of cell metabolic activity increase	–	capable of increasing cell metabolic activity	increase cell metabolic activity only at 50 µM	3.72	–

Reference: article PMC11819963, “In Vitro CO-Releasing and Antioxidant Properties of Sulfonamide-Based CAI-CORMs in a H2O2-Stimulated Human Achilles Tendon-Derived Cell Model” (Molecules, 2025)
